Measurements from patent US10231453B2, “5-substituted imidazole derivatives” (BAYER CROPSCIENCE AKTIENGESELLSCHAFT, priority 2015, dated 2019).
Like-named read-outs stand apart in the source and are kept apart here.

How the values were obtained:
[1] = system: Fusarium culmorum; test: In vitro test for the calculation of the ED50-value with microorganisms, Example Q4: Fusarium culmorum; format: cell-based; conditions: liquid culture, spore suspension, 4 to 7 days incubation, spectrometric measurement of mycelium growth
Description: • Solvent: Dimethyl sulfoxide • Culture medium: 14.6 g anhydrous D-glucose (VWR), 7.1 g Mycological Peptone (Oxoid), 1.4 g granulated Yeast Extract (Merck), QSP liter • Inoculum: Spore suspension
Fungicides were solubilized in DMSO and the solution used to prepare the required range of concentrations. The final concentration of DMSO used in the assay was ≤1%.
A spore suspension was prepared and diluted to the desired spore density.
Fungicides were evaluated for their ability to inhibit spore germination and mycelium growth in liquid culture assay. The compounds were added in the desired concentration to the culture medium with spores. After 4 to 7 days incubation, fungi-toxicity of compounds was determined by spectrometric measurement of mycelium growth. Inhibition of fungal growth was determined by comparing the absorbance values in wells containing the fungicides with the absorbance in control wells without fungicides.

[2] = system: Leptosphaeria nodorum; test: In vivo preventive Leptosphaeria nodorum test (wheat), Example N; conditions: Parastagonospora nodorum, 192 h, 500 ppm of active ingredient, preventive spray, evaluated 8 days after inoculation, read-out: efficacy
From the text: After the spray coating has been dried, the plants are sprayed with a spore suspension of Leptosphaeria nodorum.

[3] = system: Venturia inaequalis; test: In vivo preventive Venturia test (apples), Example J; conditions: 240 h, read-out: efficacy
Description: After the spray coating has dried on, the plants are inoculated with an aqueous conidia suspension of the causal agent of apple scab (Venturia inaequalis) and then remain for 1 day in an incubation cabinet at approximately 20° C. and a relative atmospheric humidity of 100%.
The plants are then placed in a greenhouse at approximately 21° C. and a relative atmospheric humidity of approximately 90%.
The test is evaluated 10 days after the inoculation.

[4] = system: Septoria tritici; test: In vitro test for the calculation of the ED50-value with microorganisms, Example Q4: Septoria tritici; format: cell-based; conditions: liquid culture, spore suspension, 4 to 7 days incubation, spectrometric measurement of mycelium growth
[5] = system: Fusarium culmorum; test: In vivo preventive Fusarium culmorum test (wheat), Example L; conditions: 120 h, 500 ppm of active ingredient, preventive spray, evaluated 5 days after inoculation, read-out: efficacy
Description: After the spray coating has been dried, the plants are slightly injured by using a sandblast and afterwards they are sprayed with a conidia suspension of Fusarium culmorum.
The test is evaluated 5 days after the inoculation.

[6] = system: Leptosphaeria nodorum; test: In vitro test for the calculation of the ED50-value with microorganisms, Example Q4: Leptosphaeria nodorum; format: cell-based; conditions: liquid culture, spore suspension, 4 to 7 days incubation, spectrometric measurement of mycelium growth
[7] = system: Septoria tritici; test: In vivo preventive test on Septoria tritici (leaf spot on wheat), Examples E, Q3 and R5; conditions: Zymoseptoria tritici, 576 h
[8] = system: Botrytis cinerea; test: In vivo preventive test on Botrytis cinerea (grey mould) on gherkin, Examples B, Q1 and R2; conditions: for pest or weed control at 500 ppm / pest or weed control at 100 ppm: Botrytis cinerea; for pest or weed control at 100 ppm: Example Q1, rate of application 100 ppm
[9] = system: Puccinia recondita; test: In vivo preventive test on Puccinia recondita (brown rust on wheat), Examples C and R3; conditions: Puccinia recondita, 264 h, preventive spray, evaluated 11 days after inoculation
[10] = system: Uromyces appendiculatus; test: In vivo preventive test on Uromyces appendiculatus (bean rust), Examples G and R7; conditions: 264 h, preventive spray, evaluated 11 days after inoculation
[11] = system: Sphaerotheca fuliginea; test: In vivo preventive test on Sphaerotheca fuliginea (powdery mildew on cucurbits), Examples F and R6; conditions: Podosphaera fuliginea, 360 h, preventive spray, evaluated 15 days after inoculation
[12] = system: Fusarium graminearum; test: whole plant or invertebrate; format: in vivo; conditions: in Hordeum vulgare, 120 h, read-out: efficacy
[13] = system: Pyrenophora teres; test: In vivo preventive test on Pyrenophora teres (net blotch on barley), Examples D, Q2 and R4; conditions: Pyrenophora teres, 336 h
[14] = system: Botrytis cinerea; test: In vitro test for the calculation of the ED50-value with microorganisms, Example Q4: Botrytis cinerea; format: cell-based; conditions: liquid culture, spore suspension, 4 to 7 days incubation, spectrometric measurement of mycelium growth
[15] = system: Fusarium nivale (var. majus); test: In vivo preventive Fusarium nivale (var. majus) test (wheat), Example O; conditions: Microdochium nivale, 120 h, 500 ppm of active ingredient, preventive spray, evaluated 5 days after inoculation, read-out: efficacy
From the text: After the spray coating has been dried, the plants are slightly injured by using a sandblast and afterwards they are sprayed with a conidia suspension of Fusarium nivale (var. majus).

[16] = system: Phakopsora pachyrhizi; test: In vivo preventive Phakopsora test (soybeans), Example I; conditions: 168 h, 100 ppm of active ingredient, preventive spray, evaluated 7 days after inoculation, read-out: efficacy
[17] = system: Blumeria graminis fsp. hordei; test: In vivo preventive Blumeria test (barley), Example K; conditions: 168 h, 500 ppm of active ingredient, preventive spray, evaluated 7 days after inoculation, read-out: efficacy
From the text: After the spray coating has been dried, the plants are dusted with spores of Blumeria graminis fsp. hordei.

[18] = system: Alternaria solani; test: In vivo preventive Alternaria test (tomatoes), Example H; conditions: 72 h, 100 ppm of active ingredient, preventive spray, evaluated 3 days after inoculation, read-out: efficacy
[19] = system: Pyricularia oryzae; test: whole plant or invertebrate; format: in vivo; conditions: 192 h, read-out: efficacy
[20] = Measurement of LogP values by HPLC on reversed phase columns (EEC directive 79/831 Annex V.A8); format: physicochemical; conditions: method [a]: LC-UV, acidic range, 0.1% formic acid in water and acetonitrile as eluent; Table 1
Description: Measurement of Log P values was performed as outlined above.

[21] = 500 ppm of active ingredient, wheat, preventive spray, evaluated 24 days after inoculation, read-out: efficacy
[22] = Example Q3, rate of application 100 ppm, wheat, read-out: Efficacy in %
[23] = Example Q3, rate of application 500 ppm, wheat, read-out: Efficacy in %
[24] = Example R5, wheat, preventive spray, 100 ppm, evaluated 24 days after inoculation, read-out: Efficacy in %
[25] = Example R5, wheat, preventive spray, 500 ppm, evaluated 24 days after inoculation, read-out: Efficacy in %
[26] = 500 ppm of active ingredient, preventive spray, evaluated 4 to 5 days after inoculation, read-out: efficacy
[27] = Example Q1, rate of application 500 ppm, read-out: Efficacy in %
[28] = Example R2, rate of application 100 ppm
[29] = Example R2, rate of application 500 ppm
[30] = 500 ppm of active ingredient, wheat, read-out: efficacy
[31] = Example R3, wheat, read-out: Efficacy in %
[32] = Example R3, wheat, 500 ppm, read-out: Efficacy in %
[33] = 500 ppm of active ingredient, bean, read-out: efficacy
[34] = Example R7, bean, read-out: Efficacy in %
[35] = Example R7, bean, 500 ppm, read-out: Efficacy in %
[36] = 500 ppm of active ingredient, gherkin, read-out: efficacy
[37] = Example R6, gherkin, read-out: Efficacy in %
[38] = Example R6, gherkin, 500 ppm, read-out: Efficacy in %
[39] = 500 ppm of active ingredient, preventive spray, evaluated 14 days after inoculation, read-out: efficacy
[40] = Example Q2, rate of application 100 ppm, read-out: Efficacy in %
[41] = Example Q2, rate of application 500 ppm, read-out: Efficacy in %
[42] = Example R4, rate of application 100 ppm, read-out: Efficacy in %
[43] = Example R4, rate of application 500 ppm, read-out: Efficacy in %

Row | SMILES | Fusarium culmorum ED50 value in ppm [1] [ppm] | pest or weed control at 500 ppm [2] [%] | pest or weed control at 100 ppm [3] [%] | Septoria tritici ED50 value in ppm [4] [ppm] | Leptosphaeria nodorum ED50 value in ppm [6] [ppm] | pest or weed control at 500 ppm [7, 21] [%] | pest or weed control at 100 ppm [7, 22] [%] | pest or weed control at 500 ppm [7, 23] [%] | pest or weed control at 100 ppm [7, 24] [%] | pest or weed control at 500 ppm [7, 25] [%] | pest or weed control at 500 ppm [8, 26] [%] | pest or weed control at 100 ppm ([8]; read-out: Efficacy in %) [%] | pest or weed control at 500 ppm [8, 27] [%] | Efficacy in % [8, 28] [%] | Efficacy in % [8, 29] [%] | pest or weed control at 500 ppm [9, 30] [%] | pest or weed control at 100 ppm [9, 31] [%] | pest or weed control at 500 ppm [9, 32] [%] | pest or weed control at 500 ppm [10, 33] [%] | pest or weed control at 100 ppm [10, 34] [%] | other results
1 | N#Cc1cncn1CC(O)(Cc1ccc(Cl)cc1F)C1(Cl)CC1 (centres unmarked) [Example I-29] | 0.01 | 90 to 100 | 90 to 100 | <0.006 | 0.02 | 90 to 100 | 100 | 100 | 100 | 100 | 90 to 100 | 86 | 99 | 86 | 99 | 90 to 100 | 94 | 98 | 90 to 100 | 100 | pest or weed control at 500 ppm [5]: 80 to 89%; pest or weed control at 500 ppm [10, 35]: 100%; pest or weed control at 500 ppm [11, 36]: 90 to 100%; pest or weed control at 100 ppm [11, 37]: 100%; pest or weed control at 500 ppm [11, 38]: 100%; pest or weed control at 500 ppm [12]: 90 to 100%; pest or weed control at 500 ppm [13, 39]: 80 to 89%; pest or weed control at 100 ppm [13, 40]: 83%; pest or weed control at 500 ppm [13, 41]: 89%; pest or weed control at 100 ppm [13, 42]: 83%; pest or weed control at 500 ppm [13, 43]: 89%; Botrytis cinerea ED50 value in ppm [14]: 0.26 ppm; pest or weed control at 500 ppm [15]: 90 to 100%; pest or weed control at 100 ppm [16]: 90 to 100%; pest or weed control at 500 ppm [17]: 90 to 100%; pest or weed control at 100 ppm [18]: 90 to 100%
2 | OC(Cc1ccc(Cl)cc1F)(Cn1cncc1Br)C1(Cl)CC1 (centres unmarked) [Example I-30] | 0.01 | 90 to 100 | 90 to 100 | <0.006 | 0.01 | 90 to 100 | 94 | 98 | 94 | 98 | 90 to 100 | 100 | 100 | 100 | 100 | 90 to 100 | 88 | 94 | 90 to 100 | 88 | pest or weed control at 500 ppm [19]: 90 to 100%; pest or weed control at 500 ppm [10, 35]: 100%; pest or weed control at 500 ppm [11, 36]: 90 to 100%; pest or weed control at 100 ppm [11, 37]: 100%; pest or weed control at 500 ppm [11, 38]: 100%; chromatographic logP [20]: 2.55; pest or weed control at 500 ppm [13, 39]: 90 to 100%; pest or weed control at 100 ppm [13, 40]: 91%; pest or weed control at 500 ppm [13, 41]: 94%; pest or weed control at 100 ppm [13, 42]: 81%; pest or weed control at 500 ppm [13, 43]: 94%; Botrytis cinerea ED50 value in ppm [14]: 0.08 ppm; pest or weed control at 100 ppm [16]: 90 to 100%; pest or weed control at 500 ppm [17]: 90 to 100%; pest or weed control at 100 ppm [18]: 90 to 100%
